Test: Stability in simulated intestinal fluid
Format: physicochemical

half-life: 7.97 h
Compound: CC[C@H]1OC(=O)[C@H](C)[C@@H](O[C@H]2C[C@@](C)(OC)[C@@H](O)[C@H](C)O2)[C@H](C)[C@@H](O[C@@H]2O[C@H](C)C[C@H](N(C)C)[C@H]2O)[C@](C)(O)C[C@@H](C)C(=O)[C@H](C)[C@@H](O)[C@]1(C)O [erythromycin]

From paper PMC10794885 (RSC Advances, 2024)
